The values that follow come from patent US20120207821A1, “Liposomal formulation and use thereof” (priority 2005, published 2012).

Assay [1] has as its system Leishmania donovani, AG83. The assay can be described thus: In vivo activity screening in established infection model with graded doses to calculate 50% effective dose. As to conditions: for % Inhibition of liver parasite level / % Inhibition of spleen parasite level: BALB/c mice, i.v., 30 days post treatment. An excerpt:
Inbred mice of 4-6 weeks old, weigh 20 g and of any sex, strain BALB/c were infected with Leishmania donovani, AG83, by intravenous inoculation with 2.5×10^7 amastigotes from the spleen of an infected hamster. Eight weeks after inoculation, the mice were divided into groups of 4-5 animals and dosed intravenously into the tail vein with graded dose of free SAG, empty PC-SA liposome, or SAG entrapped PC-SA liposome. Mice were sacrificed on 30 days post treatment. The livers and spleens were excised and weighed. Impressions smears were prepared from the cut surface of the liver and spleen. The impression smears were stained with Giemsa, and number of amastigotes counted microscopically per 500 cell nuclei. The results of 30 days post treatment are expressed as percentage suppression in parasite burden in compared to infected but untreated mice. Thereby, the dosage necessary to reduce the parasite count to 50% of the untreated group could be calculated.

Assay [2] deals with Leishmania donovani GE1F8R strain. The assay can be described thus: In vivo efficacy assay against SAG-resistant strain. The settings on record: BALB/c mice, i.v. 8 weeks after inoculation, 30 days post treatment. The protocol: Inbred mice of 4-6 weeks old, weigh […] and of any sex, strain BALB/c were infected with Leishmania donovani GE1F8R strain by intravenous inoculation with 2.5×10^7 amastigotes from the spleen of an infected hamster. Eight weeks after inoculation, the mice were divided into groups of 4-5 animals and dosed intravenously into the tail vein with optimal dose of free SAG, equivalent amount of free SAG, empty PC-SA liposome or SAG entrapped PC-SA liposome ([…]). Mice were sacrificed on 30 days post treatment. Livers and spleens were excised and weighed. Bone marrow was also isolated and smeared on glass slides. Impressions smears were prepared from the cut surface of the liver and spleen. The impression smears were stained with Giemsa, and number of amastigotes counted microscopically per 500 cell nuclei. The results of 30 days post treatment are expressed as Leishman Donovan units and percentage suppression in parasitemia with respect untreated infected control were calculated.

Assay [3] has as its system Leishmania donovani, AG83. The assay can be described thus: In vivo activity screening in chronic infection model (12 weeks post infection). The settings on record: BALB/c mice, single i.v. dose 12 weeks post infection, 30 days post treatment; SAG 0.015-0.02 g/kg body wt. An excerpt: Inbred mice of 4-6 weeks old, weigh 20 g and of any sex, strain BALB/c were infected with Leishmania donovani, AG83, by intravenous inoculation with 2.5×10^7 amastigotes from the spleen of an infected hamster. Twelve weeks after inoculation, the mice were divided into groups of 4-5 animals and dosed intravenously into the tail vein with empty PC-SA liposome (1-1.1 g/kg body wt.), free SAG (0.015-0.020 g/kg body wt.) or equivalent amount of SAG entrapped in PC-SA liposome (0.015 g/kg of SAG in 1-1.1 g/kg body wt of liposome). Mice were sacrificed on 30 days post treatment. Livers and spleens were excised and weighed. Impressions smears were prepared from the cut surface of the liver and spleen. The impression smears were stained with Giemsa, and number of amastigotes counted microscopically per 500 cell nuclei. The results of 30 days post treatment are shown below and expressed percentage suppression in parasitemia with respect to untreated infected control calculated.

The test system of assay [4] is Leishmania donovani, AG83. Briefly: In vivo efficacy in established infection model (8 weeks post infection). The settings on record: BALB/c mice, single i.v. dose 8 weeks post infection, 30 days post treatment, SAG 0.3-0.4 g/kg body wt. The source says: Inbred mice of 4-6 weeks old, weigh 20 g and of any sex, strain BALB/c were infected with Leishmania donovani, AG83, by intravenous inoculation with 2.5×10^7 amastigotes from the spleen of an infected hamster. Eight weeks after inoculation, the mice were divided into groups of 4-5 animals and administered at a single dose intravenously into the tail vein with optimal dose of free SAG (0.3 g/kg wt.) or empty PC-SA liposome (1.1 g/kg wt.) or SAG entrapped PC-SA liposome (0.015 g/kg of SAG into 1.1 g/kg body wt.) or SAG entrapped in PC-Chol liposome (0.015 g/kg of SAG into 1.25 g/kg wt. of lipid). Mice were sacrificed on 30 days post treatment. Livers and spleens were excised and weighed. Bone marrow was also isolated from femur bone and smeared on glass slides. Impressions smears were prepared from the cut surface of the liver and spleen. The impression smears were stained with Giemsa, and number of amastigotes counted microscopically per 500 cell nuclei. The results of 30 days post treatment are shown below and expressed as percentage suppression in parasitemia with respect to untreated infected.

Where [5] appears, read: liver parasite level, dose expressed as SAG.
Where [6] appears, read: spleen parasite level, dose expressed as SAG.

Consider sodium antimony gluconate [SAG], for which the “% Inhibition of liver parasite level” value is recorded as 56.55% in assay [1] (SAG 0.005 g/kg body wt.); 56.7% in assay [1] (SAG 0.010 g/kg body wt.); 61.29% in assay [1] (SAG 0.050 g/kg body wt.); 88.03% in assay [1] (SAG 0.10 g/kg body wt.); 92.73% in assay [1] (SAG 0.30 g/kg body wt.); 96.6% in assay [1] (SAG 0.50 g/kg body wt.). For the same compound, the “% Inhibition of liver parasite level” value in assay [3] was 50.88%; in assay [4], 82.322%. In addition, the “% Inhibition of spleen parasite level” value is 41.27% in assay [1] (SAG 0.005 g/kg body wt.); 50.95% in assay [1] (SAG 0.010 g/kg body wt.); 55.67% in assay [1] (SAG 0.050 g/kg body wt.); 65.79% in assay [1] (SAG 0.10 g/kg body wt.); 70.49% in assay [1] (SAG 0.30 g/kg body wt.); 80.33% in assay [1] (SAG 0.50 g/kg body wt.). In addition, the “% Inhibition of spleen parasite level” value in assay [3] stood at 26.69%; in assay [4], 70%. Also, the “ED50 (+S.E) Liver, SAG” value in assay [1] (setting [5]) is 0.012 + 0.004 g/kg body wt. Further, the “ED90 (+S.E) Liver, SAG” value in assay [1] (setting [5]) is 0.347 + 0.005 g/kg body wt. For the same compound, in assay [1] (setting [6]), the “ED50 (+S.E) Spleen, SAG” value is on record as 0.145 + 0.020 g/kg body wt. The “ED90 (+S.E) Spleen, SAG” value in assay [1] (setting [6]) is 0.493 + 0.028 g/kg body wt. The “% Inhibition of parasite level” value in assay [2] (bone marrow, SAG 0.015-0.02 g/kg body wt.) turned out to be 0%; in assay [2] (bone marrow, SAG 0.3 g/kg body wt.), 16.836%; in assay [2] (liver, SAG 0.015-0.02 g/kg body wt.), 0%; in assay [2] (liver, SAG 0.3 g/kg body wt.), 5.309%; in assay [2] (spleen, SAG 0.015-0.02 g/kg body wt.) it was 0%; in assay [2] (spleen, SAG 0.3 g/kg body wt.), 16.836%. Also, the “% Inhibition of parasite level” value in assay [4] (bone marrow) was 44.029%.

For the compound `C[C@@H]1[C@H](O)[C@@H](C)/C=C/C=C/C=C/C=C/C=C/C=C/C=C/[C@H](O[C@@H]2O[C@H](C)[C@@H](O)[C@H](N)[C@@H]2O)C[C@@H]2O[C@](O)(C[C@@H](O)C[C@@H](O)[C@H](O)CC[C@@H](O)C[C@@H](O)CC(=O)O[C@H]1C)C[C@H](O)[C@H]2C(=O)O` [Amphotericin B], the “% Inhibition of parasite level” value was determined as 85.091% in assay [2] (bone marrow, Amphotericin B 0.002-0.0025 g/kg body wt.); 87.778% in assay [2] (liver, Amphotericin B 0.002-0.0025 g/kg body wt.); 85.091% in assay [2] (spleen, Amphotericin B 0.002-0.0025 g/kg body wt.).
